Assay results: patent US11179407B2, “Method for synthetically producing arabinogalactan compounds derived from plants and uses of said compounds for the prophylaxis of allergic reactions” (Forschungszentrum Borstel Leibniz-Zentrum für Medizin und …, priority 2015, dated 2021)

Legend:
[1] = test system: allergic airway inflammation; assay: mouse model of allergic airway inflammation (OVA/Alum sensitization, OVA aerosol challenge): BAL cells and lung sections; type: in vivo, mouse (BALB/c)
Procedure: Female BALB/c mice (Charles River, Sulzfeld, Germany) aged 7-8 weeks were used and acclimated to the animal facility for 14 days prior to experiments. Animals had access to food and water ad libitum. All experimental procedures were approved by the responsible animal ethics committees. Mice were sensitized by intraperitoneal injection of 20 μg ovalbumin (OVA; GradeV; Sigma, St. Louis, Mo.) emulsified in 2.2 mg aluminum hydroxide (ImjectAlum; Pierce, Rockford, Ill.) in a total volume of 200 μl on days 1 and 14. On days 28 and 38 mice were challenged via the airways with 1% OVA aerosol for 20 min using a PARI-Boy aerosol generator. Mice were treated with the synthetic substances during the sensitization phase. Substances were administered intranasally in 50 μl of PBS. Mice were treated 14 times beginning on the day of the first OVA injection and the last treatment six days before the second OVA-aerosol challenge. Control groups were sensitized as described above and treated 14 times with phosphate buffered saline (PBS). Three days after OVA challenge lungs were lavaged via a tracheal tube with 2×1 ml PBS, and leukocytes in the lavage fluid were counted. After centrifugation, BAL fluid was frozen for further analysis. […] The percentages of eosinophils, lymphocytes and macrophages in BAL samples were determined by light microscopy. […]

[2] = test system: IL-5 and IL-13 production by spleen cells; assay: in vitro cytokine production (IL-5, IL-13) of mouse splenocytes re-stimulated with OVA after in vivo treatment; design: species or system mouse (BALB/c); conditions: FIG. 3, i.n. treatment during sensitization and challenge
Procedure: (§1) Mice were sensitized by intraperitoneal injection of 20 μg ovalbumin (OVA; GradeV; Sigma, St. Louis, Mo.) emulsified in 2.2 mg aluminum hydroxide (ImjectAlum; Pierce, Rockford, Ill.) in a total volume of 200 μl on days 1 and 14. On days 28 and 38 mice were challenged via the airways with 1% OVA aerosol for 20 min using a PARI-Boy aerosol generator.
(§2) Mice were treated with the synthetic substances during the sensitization phase. Substances were administered intranasally in 50 μl of PBS. Mice were treated 14 times beginning on the day of the first OVA injection and the last treatment six days before the second OVA-aerosol challenge. Control groups were sensitized as described above and treated 14 times with phosphate buffered saline (PBS).
Spleens were harvested 3 days after the second aerosol challenge. Single cell suspensions were prepared by mechanical disruption and erythrocytes were lysed. Spleen cells were then cultured at a concentration of 5×10^6/ml in complete tissue culture medium (CTCM) (RPMI 1640 with 10% fetal calf serum (FCS), 2 mM L-glutamine, 100 U/ml penicillin, 100 μg/ml streptomycin, all from Biochrom, Berlin, Germany). To stimulate specific cytokine production OVA was added to a final concentration of 50 μg/ml. […] Levels of IL-5 and IL-13 were assessed by using optEIA kits (BD Biosciences, Heidelberg, Germany) according to the manufacturer's instructions.

IgE = assay: total IgE in BAL fluid by ELISA in OVA/Alum mouse model; type: in vivo, mouse (BALB/c); conditions: FIG. 3, i.n. treatment
Procedure: as §1, §2
Blood was collected by tail vein puncture two days after the second aerosol challenge. BAL was collected as described above. Levels of total IgE in serum or BAL fluid were determined by ELISA (Ebioscience). Levels of BSA-specific IgG1 were determined by indirect ELISA. Briefly, plates were coated with 50 μg/ml BSA followed by blocking with 1% low fat milk powder. The serum was diluted 1/100 in PBS and incubated on the BSA coated wells for 1 h, followed by detection of bound antibodies by alkaline phosphatase coupled rat anti mouse IgG1 (BDbiosciences).

With `OCC1O[C@@H](OCC2O[C@@H](OCC3O[C@@H](OCCCCCc4ccc(N=C=S)cc4)C(O)C(O)[C@H]3O)C(O)C(O[C@H]3O[C@@H](CO[C@@H]4O[C@@H](CO)C(O)C4O)C(O)C3O)[C@H]2O)C(O)C(O)[C@H]1O` (stereo partly shown) [Araf2Galp3] the eosinophilic airway inflammation ([1]; FIG. 3, i.n. treatment, BAL) was “not able to reduce these parameters significantly”, the goblet cell metaplasia ([1]; FIG. 3 experiment, determined in lung sections) was “not able to reduce these parameters significantly” and the “Th2 response as measured by in vitro production of IL-5 and IL-13 by spleen cells” value [2] was “not able to reduce these parameters significantly”. The IgE production (IgE) was “not able to reduce these parameters significantly”.
